This is an account of results in article PMC8164609 (Environmental Science and Pollution Research International, 2021).

Molecules are shown by their SMILES. Values joined by “and” are separate entries in the source; they are usually repeats but may differ in a detail not shown here. Equal entries are not always repeated. Where two headings read alike, the source gives them in different places.

Data set [1] concerns MCF-7 cells. The arrangement: method as in Lei et al. [2017]. The conditions noted are these: 10^−4 M, 24-h incubation, LDH leakage; ref Lei et al. [2017]; cited from earlier work. On the technique in general: Release of lactate dehydrogenase indicates damage to the cell membrane.
For data set [2], the system named is MCF-7 cells. The arrangement: method as in Blanquer-Rosselló et al. [2013]. The conditions noted are these: 0.001–20 μM, ref Blanquer-Rosselló et al. [2013]; cited from earlier work.
Data set [3] deals with MCF-7 cells. Description: MCF-7 cell proliferation assay (MTT reduction). In kind it is cell-based, human. To be noted: MCF-7 cells, MTT. On the procedure: MCF-7 cell line which is sensitive to estrogen (ERα^+) was kindly provided by Dr. Sari Tojkander (Department of Veterinary Biosciences, Faculty of Veterinary Medicine, University of Helsinki). Cells were usually grown in T25 or T75 flasks containing DMEM with or without phenol red and supplemented with 7–10% FBS and 4 mM L-glutamine at 37°C in 5% CO2/95% humidified atmosphere. In order to eliminate the disturbing effect of hormones usually present in FBS, cell culture medium supplemented with commercially available charcoal-stripped FBS and 4 mM L-glutamine (SF medium) was used for experiments.
The effect of EEDCs on the proliferation of MCF-7 cells was assessed as previously described by measuring the capacity of the cells in each well to reduce MTT reagent (Van Meeuwen et al. [2007]). Approximately 5000 cells/200 μL of SF medium containing DMEM without phenol red, 5% charcoal-stripped FBS, and 4 mM L-glutamine were seeded per well in a 96-well cell culture plate. On day 2, cells were treated with the SF medium containing test compounds or vehicle. The final concentration of the solvents DMSO and EtOH was lower than 0.1%. On day 5, the SF medium containing test compounds or vehicle were refreshed. On day 8, cells were washed with PBS twice and then incubated with the SF medium containing 1 mg/mL MTT reagent for 1 h. The ability of MCF-7 cells to reduce MTT was measured at the reference wavelength of 595 nm using a microplate reader (Multiskan Ascent, Thermo Fisher Scientific). All the exposures were in triplicate.
The dose-response curves of test samples were plotted against logarithmic-transformed concentrations.

In data set [4] the test system is MCF-7 cells. Description: In vitro micronucleus assay for cytokinesis block. In kind it is cell-based, human. The conditions noted are these: 24 h; for Micronuclei per 1000 binucleated cells, Replicates: single replicate values. How it is done: The genotoxicity of EEDCs to MCF-7 cells was assessed by the in vitro micronucleus assay for cytokinesis block. MCF-7 cells were seeded at a density of 5×10^4/well in a 12-well plate in SF medium containing DMEM, 7% charcoal-stripped FBS and 4 mM L-glutamine. These cells were treated with test compounds or the positive control for 24 h. Then, cells were washed twice with PBS, treated with 2 μg/mL cytochalasin B, and incubated for 1.5–2 normal cell cycle lengths (~24 h for MCF-7 cells). Finally, cells were washed with PBS and fixed with 4% paraformaldehyde for 10–15 min (in PBS, pH 6.9). Before staining cells with 5% Giemsa stain for 20 min, plates were washed again with PBS and dried. The frequency of micronuclei per 1000 binucleated cells was counted for each well, and the ratio of micronucleus frequency in treated vs. control cells was defined as fold induction. Cells in mitosis were omitted.

In data set [5] the test system is MCF-7 cells. Description: LDH cytotoxicity test. The conditions noted are these: 24 h, up to 10^−4 M. How it is done:
Cytotoxicity was assessed by lactate dehydrogenase (LDH) release. For LDH measurement, Pierce LDH Cytotoxicity Assay Kit (Thermo Scientific, Rockford, USA) was used. MCF-7 cells were seeded at 2.8×10^5 in a transparent 96-well plate, and corner cells of the plate were filled with PBS to prevent the edge effect. SF medium containing DMEM without phenol red, 1% charcoal-stripped FBS, and 4 mM L-glutamine were used for this assay. Plates were incubated for 24 h, and then the cells were treated with test compounds at concentrations ranging from 10^−14 to 10^−4 M or vehicle for another 24 h. On day 3, culture supernatant was collected in a separate 96-well plate, and the assay was continued according to the manufacturer’s instructions. Final absorbance was measured with the microplate reader at 490 and 680 nm. […] Vehicle control was 0.1% EtOH or DMSO. All the exposures were in triplicate, and the experiment was carried out twice.

For another data set, the system named is S. cerevisiae BMA64/luc. To be noted: values higher than 2 are considered toxic. On the procedure: Yeast bioluminescent assay was performed as previously described (Omoruyi and Pohjanvirta [2018]). Two recombinant yeasts, Saccharomyces cerevisiae BMAEREluc/ERα and Saccharomyces cerevisiae BMA64/luc, were kindly provided by Dr. Johanna Rajasärkkä, Department of Food and Environmental Sciences, Faculty of Agriculture and Forestry, University of Helsinki. In the BMAEREluc/ERα, human ERα is expressed. After estrogen-like chemicals bind to ERα, the dimerized receptor binds to a specific DNA sequence called estrogen response element (ERE), in the promotor region of the luc reporter gene, inducing its expression. In BMA64/luc, the luciferase is expressed constitutively, and this strain can be used for the evaluation of cytotoxicity of test compounds.
Both strains were revived from glycerol stock solution on agar and broth forms of synthetic complete medium supplemented with the required amino acids. After the absence of contamination was confirmed by observing single colonies’ morphology on agar plate, approximately 10 μL of cultured yeasts in broth was transferred to 4 mL of synthetic defined (SD) medium supplemented with the required amino acids. The culture was incubated at 30°C on a shaker incubator (200 rpm). After 24-h incubation, the culture was diluted with SD broth to reach the optimal density (OD600) of 0.4 CFU/mL. Subsequently, the culture was incubated in the same incubation condition until the OD600 reached 0.6–0.7 CFU/mL.
Next, 90 μL of cultured yeasts containing 1:20 luciferin solution (0.042 g luciferin dissolved in 9.75 mL of 0.2 M trisodium citrate, and 5.525 mL of 0.2 M citrate, pH 5) was pipetted into every well of a white 96-well flat-bottom plate, and 10 μL of test compounds in a defined concentration range (diluted in 5% EtOH) were added. The plate was incubated at 30°C for approximately 2.5 h, and was then shaken briefly. The luminescence measurement was performed with Luminoskan Ascent microplate luminometer (Thermo Labsystems) using the recommended settings as follows: 1000 ms integration time, single measurement mode, shaking at 60 rpm for 5 s prior to measurement.
Each concentration of test compounds and controls in the assay was tested in triplicate, and the experiment was performed twice.
* The Correction Factor is the luminescence of the strain BMA64/luc with blank solvent divided by the luminescence of the control strain with the sample. Values higher than 2 are considered toxic (Leskinen et al. 2005).
* The Correction Factor is the luminescence of the strain BMA64/luc with blank solvent divided by the luminescence of the control strain with the sample. Values higher than 2 are considered toxic (Leskinen et al. 2005). […] Each experiment was performed in triplicate.

Turning to `CC(C)(c1ccc(O)cc1)c1ccc(O)cc1` [BPA, bisphenol A], the “increase of MCF-7-cell mortality” value in the data set with MCF-7 cells [1] is “more than 80%”.

By EC50 is commonly meant the midpoint of the concentration-response curve. With `CC(C)=CCc1c(O)cc(O)c2c1O[C@H](c1ccc(O)cc1)CC2=O` [8-PN, 8-prenylnaringenine], the “mitochondrial function and ROS production” value in the data set with MCF-7 cells [2] is “improved mitochondrial function and decreased ROS production”. For the same compound, the EC50 with MCF-7 cells [3] (Homo sapiens, MCF7, hormone-depleted medium, read-out: EC50 (proliferative effect)) worked out at 4.98 nM. Besides, the “efficacy (maximum induction of cell growth) compared with 17β-estradiol” value in the data set on MCF-7 cells [3] is “about half”. For the same compound, the figures for the “Micronuclei per 1000 binucleated cells, Average” value with MCF-7 cells [4] (10^−7 M) and in the data set with MCF-7 cells [4] (10^−8 M) were 22.33 per 1000 binucleated cells and 18.67 per 1000 binucleated cells, respectively. In addition, the “Micronuclei per 1000 binucleated cells, Replicates” value in the data set on MCF-7 cells [4] (10^−7 M) is 24 per 1000 binucleated cells and 20 per 1000 binucleated cells and 23 per 1000 binucleated cells; in the data set with MCF-7 cells [4] (10^−8 M), 16 per 1000 binucleated cells and 19 per 1000 binucleated cells and 21 per 1000 binucleated cells. In the data set on MCF-7 cells [5], the “maximum level of cytotoxicity (LDH release)” value is given as “less than 2.5%”. Besides, the “Correction Factor” value is given as 3.27±0.64 in the data set with S. cerevisiae BMA64/luc (5% DMSO, 10^−4 M); 3.31±0.92 in the data set on S. cerevisiae BMA64/luc (5% DMSO, 10^−6 M); 2.62±0.30 in the data set on S. cerevisiae BMA64/luc (5% DMSO, 10^−8 M); 2.02±0.15 in the data set with S. cerevisiae BMA64/luc (5% DMSO, 10^−10 M); 2.32±0.56 in the data set with S. cerevisiae BMA64/luc (5% DMSO, 10^−12 M); 2.09±0.35 in the data set with S. cerevisiae BMA64/luc (5% DMSO, 10^−14 M). Besides, the “Correction Factor” value with S. cerevisiae BMA64/luc (5% ethanol, 10^−4 M) was determined as 1.05±0.21; in the data set with S. cerevisiae BMA64/luc (5% ethanol, 10^−6 M) it was 0.94±0.14; with S. cerevisiae BMA64/luc (5% ethanol, 10^−8 M), 0.97±0.04; with S. cerevisiae BMA64/luc (5% ethanol, 10^−10 M), 1.03±0.16; with S. cerevisiae BMA64/luc (5% ethanol, 10^−12 M), 0.92±0.14; in the data set on S. cerevisiae BMA64/luc (5% ethanol, 10^−14 M), 0.98±0.12.
